Test results as given in PMC7312527 (International Journal of Molecular Sciences, 2020).
Values joined by “and” are separate entries in the source; they are usually repeats but may differ in a detail not shown here. Equal values may be shown once.

Experiments:
AChE from electric eel = AChE from electric eel (Electrophorus electricus, UniProt O42275); experiment: biochemical; conditions: for IC50: means ± SD of three independent experiments, read-out: EeAChE IC50 ± SD; for Selectivity for AChE: IC50 (BuChE)/IC50(AChE)
AChE from electric eel, sequence (O42275 24-633): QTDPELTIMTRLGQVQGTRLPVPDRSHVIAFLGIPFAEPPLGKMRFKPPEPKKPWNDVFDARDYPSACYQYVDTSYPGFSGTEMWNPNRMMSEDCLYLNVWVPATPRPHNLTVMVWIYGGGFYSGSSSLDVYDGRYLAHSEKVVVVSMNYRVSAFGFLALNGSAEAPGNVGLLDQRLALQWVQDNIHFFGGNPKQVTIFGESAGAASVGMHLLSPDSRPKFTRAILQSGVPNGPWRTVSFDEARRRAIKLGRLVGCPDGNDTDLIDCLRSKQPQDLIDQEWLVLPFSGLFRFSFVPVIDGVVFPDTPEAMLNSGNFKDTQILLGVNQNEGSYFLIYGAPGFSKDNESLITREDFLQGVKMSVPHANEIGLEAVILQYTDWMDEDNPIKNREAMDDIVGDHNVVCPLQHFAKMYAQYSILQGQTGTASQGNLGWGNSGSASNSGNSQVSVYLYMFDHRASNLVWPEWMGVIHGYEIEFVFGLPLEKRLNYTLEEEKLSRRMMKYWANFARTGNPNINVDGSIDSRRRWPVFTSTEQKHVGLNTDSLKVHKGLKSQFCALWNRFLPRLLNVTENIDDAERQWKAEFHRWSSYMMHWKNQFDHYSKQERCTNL

BuChE from equine serum = BuChE from equine serum (Equus caballus, UniProt P81908); experiment: biochemical; conditions: for IC50: means ± SD of three independent experiments, read-out: EqBuChE IC50 ± SD; for Selectivity for BuChE: IC50(AChE)/IC50(BuChE)
BuChE from equine serum, sequence (P81908 whole entry): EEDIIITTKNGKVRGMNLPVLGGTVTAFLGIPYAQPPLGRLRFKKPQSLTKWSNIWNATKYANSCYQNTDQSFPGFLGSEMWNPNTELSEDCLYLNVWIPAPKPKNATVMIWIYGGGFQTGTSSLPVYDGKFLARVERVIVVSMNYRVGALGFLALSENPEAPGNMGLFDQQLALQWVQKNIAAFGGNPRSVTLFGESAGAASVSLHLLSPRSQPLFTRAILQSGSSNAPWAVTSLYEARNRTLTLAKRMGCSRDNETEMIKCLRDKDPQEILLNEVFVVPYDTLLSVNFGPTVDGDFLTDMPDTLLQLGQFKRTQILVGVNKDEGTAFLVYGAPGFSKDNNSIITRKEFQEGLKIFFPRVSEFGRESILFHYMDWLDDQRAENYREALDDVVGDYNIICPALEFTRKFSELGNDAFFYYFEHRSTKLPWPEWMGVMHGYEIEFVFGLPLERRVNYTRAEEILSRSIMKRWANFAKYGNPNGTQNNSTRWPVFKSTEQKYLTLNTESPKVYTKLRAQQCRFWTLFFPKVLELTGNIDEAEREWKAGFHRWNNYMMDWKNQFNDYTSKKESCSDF

in vitro = format: cell-based; conditions: human
Experimental: (§1) Human hepatic stellate cells (HSCs, Sciencell) were cultured in the Stellate Cell Medium (Sciencell) with 1% Stellate Cell Growth Supplement, 2% fetal bovine serum (FBS), and 1% penicillin/streptomycin solution (Sciencell). Cells were kept in the incubator (37 °C, 5% CO2). At the beginning of the experiment, cells were seeded in the 96-well plates at a density of 5 × 10^3 cells per well and incubated in the incubator for 24 h. After the incubation period, medium was removed and HSCs were exposed to 100 µL of the compound solutions over a range of concentrations (10–0.1 µM) or nothing but culture medium (blank control). Cells were further incubated for 24 h. At the end, medium was removed, cells were washed with PBS, and 50 µL of the MTT solution (0.75 mg/mL) was added to the cells. Plates were kept in the dark for 2 h at 37 °C. Finally, the MTT solution was removed and 100 µL of DMSO was added to each well. Plates with DMSO were kept at room temperature for 10 min. After this time, 5 µL of Sorensen Buffer was added to each well. Plates were swayed and the absorbance was measured at a wavelength of 570 nm by a microplate reader (Synergy H1, BioTek). The cell viability was expressed as a percentage of the control values (blank control).

[1] = test system: Human hepatic stellate cells (HSCs); experiment: in vitro; format: cell-based; conditions: HSCs, 24 h
Experimental: as §1

[2] = Experimental Properties; cited from earlier work
[3] = Experimental Properties; cited from earlier work; remark: listed apart in the source
hyaluronidase = biological target: T1, hyaluronidase (Bos taurus, UniProt Q2YDK3); experiment: Hyaluronidase (HYAL) inhibition test (turbidimetry); format: biochemical
T1 sequence (Q2YDK3 36-553): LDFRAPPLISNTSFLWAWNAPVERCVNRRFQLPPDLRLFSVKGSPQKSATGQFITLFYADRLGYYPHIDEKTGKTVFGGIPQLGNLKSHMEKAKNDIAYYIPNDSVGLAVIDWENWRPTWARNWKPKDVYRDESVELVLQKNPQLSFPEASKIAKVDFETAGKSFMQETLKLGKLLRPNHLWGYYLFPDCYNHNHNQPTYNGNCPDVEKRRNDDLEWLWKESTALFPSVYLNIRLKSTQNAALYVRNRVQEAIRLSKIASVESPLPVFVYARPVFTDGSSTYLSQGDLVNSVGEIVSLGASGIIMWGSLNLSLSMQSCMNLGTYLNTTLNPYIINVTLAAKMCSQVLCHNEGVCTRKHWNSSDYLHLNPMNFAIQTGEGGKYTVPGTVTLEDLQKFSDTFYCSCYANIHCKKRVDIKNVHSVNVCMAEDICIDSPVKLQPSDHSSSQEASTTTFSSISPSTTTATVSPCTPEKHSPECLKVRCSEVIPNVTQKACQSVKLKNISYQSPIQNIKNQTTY
Experimental: The hyaluronidase inhibition assay was set by turbidimetry according to USP XXII-NF XVII, modified by Piwowarski, to the 96-wells plates test. Tested compound solutions were freshly prepared before the assay. The protocol started with the addition of 20 µL of the tested compound in monosodium phosphate buffer and 40 µL of hyaluronidase solution (22.5 U/mL, Sigma Aldrich) to each well. The plate was kept in the dark (10 min, 37 °C). In the next step, 40 µL of hyaluronic acid solution (0.03%, Sigma Aldrich) in monosodium phosphate buffer was added to the wells and the plate was incubated again (45 min, 37 °C). Finally, 300 µL of bovine serum albumin (0.1%, Serva) in sodium acetate buffer was added to the wells and the mixture was kept at room temperature for 10 min. The assay was carried out in triplicate. Changes in turbidity were measured by a microplate reader (BioTek, Winooski, VT, USA) at 600 nm. Heparin (WZF, Polfa, Warszawa, Poland) was the positive control. The inhibitory activity of the tested compound was calculated from the Equation (1):(1) % inhibition=100x1−AHA−AAN/AHA−AHYAL where AHA is the absorbance of solution without the enzyme (positive control), AHYAL is the absorbance of solution without the tested compound (negative control), and AAN is the absorbance of solution with the tested compound.

SH-SY5Y cells [4] = experiment: Neuroprotection against oxidative stress induced by H2O2 (MTT); format: cell-based, human; conditions: H2O2 100 µM
SH-SY5Y cells [5] = experiment: Neuroprotection against rotenone/oligomycin A, pre-incubation (MTT); format: cell-based, human; conditions: R/O mixture, 0.001 µM
SH-SY5Y cells [6] = experiment: Neuroprotection against rotenone/oligomycin A, co-incubation (MTT); format: cell-based, human; conditions: R/O mixture

Row | Molecule | IC50 (AChE from electric eel) | IC50 (BuChE from equine serum) | Selectivity for AChE (AChE from electric eel) | Selectivity for BuChE (BuChE from equine serum) | further results
1 | O=C(NCCCCCNc1c2c(nc3ccccc13)CCCC2)c1cc(Cl)cc(Cl)c1 [Compound 3d] | > 12000 nM and 12400 nM | > 20000 nM | – | – | –
2 | O=C(NCCCCCCNc1c2c(nc3ccccc13)CCCC2)c1cc(Cl)cc(Cl)c1 [Compound 3e] | > 20000 nM | > 20000 nM | – | – | –
3 | O=C(NCCCNc1c2c(nc3ccccc13)CCCC2)c1cc(Cl)cc(Cl)c1 [Compound 3b] | 139 ± 5 nM | 24 ± 1 nM | 0.174 | 5.756 | –
4 | Nc1c2c(nc3ccccc13)CCCC2 [Tacrine, reference compound] | – | – | – | – | viability at 24 h, 10 µM (in vitro): 90.3%; hepatotoxicity (MTT; cell viability as percentage of control) ([1]; 0.1 µM): 100.67% ± 1.03%; hepatotoxicity (MTT; cell viability as percentage of control) ([1]; 1 µM): 99.48% ± 0.74%
5 | CSc1ccc2c(c1)N(CCC1CCCCN1C)c1ccccc1S2.Cl (centres unmarked) [Thiorydazine HCl] | – | – | – | – | logP [2]: 5.9; pKa [3]: 9.5 [54]
6 | O=C(NCCCCCCCCNc1c2c(nc3ccccc13)CCCC2)c1cc(Cl)cc(Cl)c1 [Compound 3g] | 958 ± 36 nM | 607 ± 20 nM | 0.634 | 1.577 | –
7 | CC(CN1c2ccccc2Sc2ccccc21)N(C)C.Cl (centres unmarked) [Prometazine HCl] | – | – | – | – | pKa [3]: 9.1 [52]
8 | O=C(NCCCCCCCCCNc1c2c(nc3ccccc13)CCCC2)c1cc(Cl)cc(Cl)c1 [Compound 3h] | 111 ± 4 nM | 324 ± 47 nM | 2.914 | 0.343 | –
9 | Heparin [positive control] | – | – | – | – | IC50 (hyaluronidase): 56400 ± 780 nM
10 | Cc1c(C)c2c(c(C)c1O)CCC(C)(C(=O)O)O2 (centres unmarked) [Trolox, reference compound] | – | – | – | – | neuroprotection (SH-SY5Y cells [4]; compound 0.01 µM): 77.16%; neuroprotection (SH-SY5Y cells [4]; compound 0.1 µM): 91.22%; neuroprotection (SH-SY5Y cells [4]; compound 1 µM): 96.03%; neuroprotection (SH-SY5Y cells [4]; compound 10 µM): 95.05%; neuroprotection (SH-SY5Y cells [5]): 2.15%; neuroprotection (SH-SY5Y cells [6]; 0.001 µM): 5.60%; neuroprotection (SH-SY5Y cells [6]; 0.01 µM): 4.67%
11 | O=C(NCCCCCCCNc1c2c(nc3ccccc13)CCCC2)c1cc(Cl)cc(Cl)c1 [Compound 3f] | 115 ± 12 nM | 33 ± 6 nM | 0.289 | 3.457 | –
12 | Cl.O=C(NCCNc1c2c(nc3ccccc13)CCCC2)c1cc(Cl)cc(Cl)c1 [Compound 3a] | 690 ± 108 nM | 140 ± 12 nM | 0.203 | 4.935 | –
